Laboratory results as given in ChEMBL document CHEMBL1201862, “PubChem BioAssay data set” (2004).
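Each compound was tested at five concentrations against cells in 96-well plates for 48 hours. GI50 = concentration required for 50% inhibition of growth.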 Activity calls are given as the source filed them. Cut-off read from the data, not from the text of the source: active = GI50 up to about 1.1 µM and inactive = higher.

Columns and labels:
Assay in all cases: NCI anticancer screen, dose series, 48 h
MDA-N = system: MDA-N
SK-MEL-2 = system: SK-MEL-2
SK-MEL-28 = system: SK-MEL-28
PC-3 = system: PC-3
SR = system: SR
SNB-75 = system: SNB-75
HT-29 = system: HT-29
LOX IMVI = system: LOX IMVI
ACHN = system: ACHN
CAKI-1 = system: CAKI-1
UACC-62 = system: UACC-62
SW-620 = system: SW-620
BT-549 = system: BT-549
SF-268 = system: SF-268
A498 = system: A498
DU-145 = system: DU-145
HCC 2998 = system: HCC 2998
HL-60 = system: HL-60
TK-10 = system: TK-10
OVCAR-8 = system: OVCAR-8

Measured: GI50

CN1CCC/C1=C1\C(=O)c2cccn2C1=O
inactive: MDA-N > 100 µM | SK-MEL-2 > 100 µM | SK-MEL-28 > 100 µM | PC-3 > 100 µM | SR > 100 µM | SNB-75 > 100 µM | HT-29 > 100 µM | LOX IMVI > 100 µM | ACHN > 100 µM | CAKI-1 > 100 µM | UACC-62 > 100 µM | SW-620 > 100 µM | BT-549 > 100 µM | SF-268 > 100 µM | A498 > 100 µM | DU-145 > 100 µM | HCC 2998 > 100 µM | HL-60 > 100 µM | TK-10 > 100 µM | OVCAR-8 > 100 µM

COc1cccc(C2c3cc4c(cc3OC(NNc3ccccc3)C2C)OCO4)c1O (stereo not given)
inactive: MDA-N 2.14 µM | SK-MEL-2 8.55 µM | SK-MEL-28 8.77 µM | PC-3 4.76 µM | SR 1.87 µM | SNB-75 6.61 µM | HT-29 10.9 µM | LOX IMVI 12.7 µM | ACHN 1.5 µM | CAKI-1 3.1 µM | UACC-62 2.43 µM | SW-620 11 µM | BT-549 7.18 µM | SF-268 12.2 µM | A498 14 µM | DU-145 5.13 µM | HCC 2998 2.08 µM | HL-60 4.48 µM | TK-10 3.62 µM | OVCAR-8 2.47 µM

COc1ccc(-c2c(C#N)c(=O)nc(SC)n2C2OCC(OC(C)=O)C(OC(C)=O)C2OC(C)=O)cc1 (stereo not given)
inactive: MDA-N 83.4 µM | SK-MEL-2 > 100 µM | SK-MEL-28 > 100 µM | PC-3 47.3 µM | SR 5.11 µM | SNB-75 95.9 µM | HT-29 56 µM | LOX IMVI 64.1 µM | ACHN 75 µM | CAKI-1 > 100 µM | UACC-62 33.5 µM | SW-620 64.3 µM | BT-549 68.2 µM | SF-268 55 µM | A498 62.1 µM | DU-145 > 100 µM | HCC 2998 > 100 µM | HL-60 22.2 µM | TK-10 > 100 µM | OVCAR-8 90.6 µM

NC(=S)N1N=C(c2ccc3c(c2)CCC3)CC1c1ccccc1 (stereo not given)
inactive: MDA-N 22.9 µM | SK-MEL-2 13.7 µM | SK-MEL-28 41.5 µM | PC-3 19.6 µM | SR 25.3 µM | SNB-75 18.1 µM | HT-29 16.4 µM | LOX IMVI 31.5 µM | ACHN 27.9 µM | CAKI-1 21.3 µM | UACC-62 17.6 µM | SW-620 33.8 µM | BT-549 22.5 µM | SF-268 30.8 µM | A498 12.5 µM | DU-145 23 µM | HCC 2998 16.1 µM | HL-60 7.93 µM | TK-10 18.1 µM | OVCAR-8 28.3 µM
